Tests used:
sel. Dd2-B2 TKL3T1268R = experiment: 72-h ABS assay, MMV030084-selected line; assay type: cell-based, Plasmodium falciparum; conditions: Plasmodium falciparum
Protocol: (§1) Synchronicity was achieved using three rounds of sorbitol treatment on early rings, spaced 48 h apart, followed by magnetic purification of segmented schizonts following the final sorbitol treatment. Parasites were highly synchronous to within a 3 h window of development. Assays were repeated on at least three independent occasions (each with technical duplicates) and statistical significance was assessed using Mann Whitney U tests.
The resulting MMV030084-resistant parasites were cloned by limiting dilution ([Baker et al., 2017]) to obtain genetically homogenous cultures for further phenotyping and whole-genome sequencing. A second round of […]. […] Drug susceptibility of resistant lines was assessed using a 72 h ABS assay as described above, and a Mann Whitney U test was applied to assess statistically significant differences.

[1] = test system: NF54 CDPK1T145M mutant line; experiment: ABS susceptibility, CDPK1 gatekeeper mutant line; assay type: cell-based; conditions: Plasmodium falciparum, NF54, read-out: Mean IC50
Protocol: as §1

[2] = test system: recombinant TKL3 kinase domain; experiment: Radioactive in vitro kinase assay with recombinant TKL3 kinase domain; assay type: biochemical, Plasmodium falciparum; conditions: 20 μM compound
Protocol: Recombinant proteins were expressed in E. coli as previously described ([Abdi et al., 2010]). […] The cultures were then cooled to 20°C followed by induction of protein expression with 0.5 mM IPTG and further incubation at 20°C, 200 rpm for 16 h. Cultures were harvested by centrifugation at 4000g, 4°C for 10 min. Bacterial pellets were washed once in 1× PBS and were stored at −80°C. Cell pellets were resuspended in ice-cold Lysis Buffer (50 mM sodium phosphate, pH 8.0, 400 mM NaCl, 5 % (w/v) glycerol, 0.1 % (v/v) Triton X-100, 20 mM imidazole, 2 mM β-mercaptoethanol, 1× Roche protease inhibitor cocktail EDTA-free, 1 mg/ml lysozyme). Cells were disrupted by sonication. Protein was bound on a HisTrap HP column and eluted with a linear gradient of increasing imidazole concentrations. The peak fractions as determined by A280 trace were pooled together and further purified by size exclusion chromatography on a S200 gel filtration column equilibrated in 25 mM Tris pH 7.5, 100 mM NaCl, 5 % (w/v) glycerol, 1 mM DTT. Protein was pooled and concentrated. Final concentration was determined using a Bradford assay with a BSA protein standard.
Kinase assays containing 3 μg of recombinant kinase (WT or mutant) were performed in kinase assay buffer (25 mM Hepes, pH 7.5, 2 mM MnCl2, 10 mM β-glycerophosphate, 10 mM NaF, 25 μM ATP (containing 5 μCi [γ-^32P]-ATP-3000 mCi/mmol (PerkinElmer)), 5 μg substrate myelin basic protein (MBP) and ± 20 μM inhibitor) in a final reaction volume of 20 μl and incubated at 30°C for 30 min. Reactions were stopped by the addition of 5× Laemmli sample buffer and heated to 98°C for 5 min. Proteins were resolved by 4-12 % SDS-PAGE and stained in Coomassie Brilliant Blue. Kinase activity was detected by phosphorimaging. Imaging was performed on a Typhoon 5 Biomolecular imager (GE Healthcare Life Sciences).

in vitro = conditions: human

In the case of `CC(C)(CN)c1nc(-c2ccc(Cl)c(O)c2)c(-c2ccncc2)[nH]1` [MMV030084], the IC50 (sel. Dd2-B2 TKL3T1268R) is reported as 355 nM, the IC50 [1] is reported as 90 nM and the “Reduction in TKL3 kinase activity” value [2] is reported as “no reduction”. For the same compound, the CC50 (in vitro) was 41.5 µM.
